Assay results published in patent US6355669B1, “Retinoic acid agonists as preventive and therapeutic agents for nephritis” (Eisai Co., Ltd., priority 1997, dated 2002).

What was measured:
[1] = tested on: anti-dinitrophenyl (DNP) IgG2a antibody titer; test: Mouse model producing antibody (anti-DNP IgG2a antibody titer in serum, ELISA); format: in vivo, BALB/c mice; details: dose 0.1 mg/kg oral once every day for 10 days; 10th day after immunization
Description: BALB/c mice were immunized by administering dinitrophenylated keyhole limpet hemocyanin (DNP-KLH) as antigen intraperitoneally into them in a dose of 100 μg/mouse along with Freund's complete adjuvant. On the 10th day after the day on which the mice were immunized, blood was collected from the orbital venous plexus of the animals under anesthesia with ether and examined for anti-dintrophenyl (DNP) IgG2a antibody titer in serum by the ELISA method.
The test compounds B, E, F, G and H were suspended in 0.5% aqueous methyl cellulose solution and orally administered into the animals once every day for 10 days from the day when the animals were immunized with DNP-KLH. The medium was administered into the control group.

[2] = tested on: anti-rabbit γ-globulin IgG2a antibody titer; test: Rat model producing antibody (anti-rabbit γ-globulin antibody titer in serum, ELISA); format: in vivo, Sprague-Dawley strain rats; details: dose 0.3 mg/kg oral once every day for 14 days; 14th day after immunization
Description: Sprague-Dawley strain rats were immunized by subcutaneously administering rabbit γ-globulin in a dose of 4 mg/rat along with Freund's complete adjuvant into the bottoms of their both hind legs. On the 14th day after the rats were immunized, blood was collected from their tail veins and examined for anti-rabbit γ-globulin antibody titer in serum by the ELISA method.
The test compounds A, B, C and D were suspended respectively in 0.5% aqueous methyl cellulose solution and orally administered once every day for 14 days from the day on which the animals were immunized with rabbit γ-globulin. The medium was administered into the control group.

[3] = tested on: albuminuria in (NZB×NZW)F1 mice; test: Mouse model with spontaneous onset of SLE: urine protein / onset of albuminuria; format: in vivo, female (NZB×NZW) F1 mice; details: for Number of animals with Concentration of Urine Protein (mg/ml) <0.3 / Number of animals with Concentration of Urine Protein (mg/ml) >0.3 / Number of animals with Concentration of Urine Protein (mg/ml) >1 / Number of animals with Concentration of Urine Protein (mg/ml) >3 / Number of animals with Concentration of Urine Protein (mg/ml) >10: after 18 weeks of administration (34-week-old), 8 animals
Source text: (§1) In this experiment, female (NZB×NZW) F1 mice were used. Administration of each test compound was initiated at the age of 16 weeks, and blood was collected at predetermined intervals from the orbital venous plexus of the animals under anesthesia with ether and examined for anti-DNA (single-stranded chain: ss, double stranded chain: ds) antibody titer in serum. Further, urine was collected and measured for urine protein.
The test compounds A, B and D were suspended in 0.5% aqueous methyl cellulose solution and orally administered daily once into the animals for 6 days/week for 18 weeks. The medium was administered into the control group.
The effect of each compound on the onset of albuminuria after 18 weeks of administration (in 34-week-old animals) is shown in Table 2.

[4] = tested on: accelerated Masugi nephritis; test: Rat model with accelerated Masugi nephritis (proteins excreted in urine for 24 hours); format: in vivo, Sprague-Dawley strain rats; details: dose 0.3 mg/kg, oral once every day; compared with the control group; 0.3 mg/kg
Description: Sprague-Dawley strain rats were immunized by subcutaneously administering rabbit γ-globulin in a dose of 4 mg/rat along with Freund's complete adjuvant into the bottoms of their both hind legs. On the 5th day after the rats were immunized, 1 ml of anti-rat glomerular basement membrane rabbit serum diluted 6- or 8-fold was administered via tail veins into the animals. On the 8th day, the rats were forced to be orally administered 8 ml sterilized water and then placed in a metabolism cage, and their urine was collected for 24 hours during which the animals were allowed neither food nor water. As the indicator of the model with accelerated Masugi nephritis, the amount of proteins excreted in urine for 24 hours was used.
(§2) The medium was administered into the control group.

anti-ss DNA antibody = test: Mouse model with spontaneous onset of SLE: production of anti-ss DNA antibody; format: in vivo, female (NZB×NZW) F1 mice
Description: as §1, §2

human RARβ = molecular target: T1, human RARβ (Homo sapiens, UniProt P10826); test: Transcription-promoting activity via RAR (PLAP reporter in COS-1 cells), RAR-β; format: cell-based; design: expressed in transfected cells; host or cells: COS-1 (African green monkey kidney), transient lipofection; details: Relative ED30: ED30 of all-trans-retinoic acid for each receptor = 1
T1 sequence (P10826 1-455): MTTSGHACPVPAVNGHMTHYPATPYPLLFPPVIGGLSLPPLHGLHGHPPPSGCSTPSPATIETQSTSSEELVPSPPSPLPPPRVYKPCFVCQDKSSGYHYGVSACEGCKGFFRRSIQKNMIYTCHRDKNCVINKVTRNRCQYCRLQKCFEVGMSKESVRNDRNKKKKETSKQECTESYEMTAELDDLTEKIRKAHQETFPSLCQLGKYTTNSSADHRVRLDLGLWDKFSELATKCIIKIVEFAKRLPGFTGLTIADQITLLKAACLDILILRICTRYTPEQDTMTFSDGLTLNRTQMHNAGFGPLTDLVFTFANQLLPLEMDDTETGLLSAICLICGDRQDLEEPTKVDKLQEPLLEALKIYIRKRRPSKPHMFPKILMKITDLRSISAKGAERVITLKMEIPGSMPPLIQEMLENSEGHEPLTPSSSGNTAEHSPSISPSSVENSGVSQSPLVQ
Description: (§3) A human RAR expression vector and a secretory alkali phosphatase (PLAP) gene vector (PLAP vector) having a response sequence integrated upstream for allowing RAR-bound PLAP to be expressed depending on ligand, were tentatively introduced into COS-1 (renal cell line derived from African green monkey). The PLAP, which was produced depending on ligand and secreted into a culture liquid, was measured by chemiluminescence techniques to examine the transcription-promoting activity of each test compound. Further, the ability of the test compound to promote the transcription of each receptor subtype was compared to determine the selectivity of the compound for RAR subtype.
(§4) 2.5×10^4 COS-1 cells were plated onto a 60-mm Petri dish, and after 4 days, the cells were transformed by lipofection with 4 μg expression vector for human RARα, RARβ or RARγ and 4 μg PLAP vector. After 1 day, the cells were recovered and plated at a density of 2×10^4 cells/well on a 96-well culture plate. After 4 hours, the medium was exchanged with a charcoal treated FBS-containing medium, then a diluted solution of all-trans-retinoic acid or a test compound was added thereto, and after 36 hours, the supernatant was recovered from the cell culture. The recovered sample was treated for 10 minutes at 65° C. to eliminate unspecific activity. 15 μl of the sample was mixed with 60 μl of 28 mM sodium carbonate buffer (pH 10) and reacted with 75 μl of a chemifluorescent substrate Smilight™ (Sumitomo Metal Industries, Ltd.) at 37° C. for 30 minutes to determine the […].
(§5) The concentration (ED30) of each test compound showing 30% activity, where it was assumed that the average transcriptional activity induced by and 3 μM all-trans-retinoic acid was 100%, was determined. Then, the relative ED30 of each compound, where it was assumed that the ED30 of all-trans-retinoic acid for each receptor was 1, is shown as Relative ED30* in Tables 4-1 and 4-2.

human RARα = molecular target: T2, human RARα (Homo sapiens, UniProt P10276); test: Transcription-promoting activity via RAR (PLAP reporter in COS-1 cells), RAR-α; format: cell-based; design: expressed in transfected cells; host or cells: COS-1 (African green monkey kidney), transient lipofection; details: Relative ED30: ED30 of all-trans-retinoic acid for each receptor = 1
T2 sequence (P10276 1-462): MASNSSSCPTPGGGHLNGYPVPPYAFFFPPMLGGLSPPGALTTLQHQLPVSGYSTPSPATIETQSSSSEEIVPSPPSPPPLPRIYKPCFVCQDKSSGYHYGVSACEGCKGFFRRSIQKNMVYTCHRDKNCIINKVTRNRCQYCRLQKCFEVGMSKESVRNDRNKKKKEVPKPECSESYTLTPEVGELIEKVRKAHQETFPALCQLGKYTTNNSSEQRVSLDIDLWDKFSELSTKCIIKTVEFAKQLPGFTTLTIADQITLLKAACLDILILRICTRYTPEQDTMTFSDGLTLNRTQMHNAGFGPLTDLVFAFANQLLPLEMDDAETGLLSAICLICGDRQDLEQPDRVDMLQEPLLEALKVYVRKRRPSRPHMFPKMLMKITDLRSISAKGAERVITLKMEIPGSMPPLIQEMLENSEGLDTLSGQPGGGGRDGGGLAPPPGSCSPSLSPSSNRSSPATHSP
Description: as §3, §4, §5

human RARγ = molecular target: T3, human RARγ (Homo sapiens, UniProt P13631); test: Transcription-promoting activity via RAR (PLAP reporter in COS-1 cells), RAR-γ; format: cell-based; design: expressed in transfected cells; host or cells: COS-1 (African green monkey kidney), transient lipofection; details: Relative ED30: ED30 of all-trans-retinoic acid for each receptor = 1
T3 sequence (P13631 1-454): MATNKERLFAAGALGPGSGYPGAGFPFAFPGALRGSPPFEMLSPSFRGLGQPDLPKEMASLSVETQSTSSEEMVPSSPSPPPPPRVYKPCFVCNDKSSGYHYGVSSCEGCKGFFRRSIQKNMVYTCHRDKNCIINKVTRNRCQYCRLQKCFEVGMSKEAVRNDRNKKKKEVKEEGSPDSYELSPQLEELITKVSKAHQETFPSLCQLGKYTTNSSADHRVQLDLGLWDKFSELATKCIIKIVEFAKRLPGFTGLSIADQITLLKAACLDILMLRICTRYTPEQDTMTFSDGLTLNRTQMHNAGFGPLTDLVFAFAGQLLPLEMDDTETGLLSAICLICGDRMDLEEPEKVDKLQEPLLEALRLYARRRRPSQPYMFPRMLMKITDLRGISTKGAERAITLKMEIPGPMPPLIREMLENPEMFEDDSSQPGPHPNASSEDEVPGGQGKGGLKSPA
Description: as §3, §4, §5

anti-ds DNA antibody = test: Mouse model with spontaneous onset of SLE: production of anti-ds DNA antibody; format: in vivo, female (NZB×NZW) F1 mice; details: 50 mg/kg; examined in the same manner
Description: as §1, §2

[5] = dose 0.03 mg/kg, after 18 weeks of administration

| Transcription promoting activity ED30* RAR-β (human RARβ) | Transcription promoting activity ED30* RAR-α (human RARα) | Transcription promoting activity ED30* RAR-γ (human RARγ) | Molecule | effect on anti-rabbit γ-globulin IgG2a antibody titer [2] | Degree of Inhibition of Albuminuria (%) [4] [%] | also measured |
| --- | --- | --- | --- | --- | --- | --- |
| – | – | – | O=C(O)c1ccc(-c2ccc(-c3cc4c(C(F)(F)F)ccc(F)c4o3)[nH]2)cc1 [Compound B, 4-{2-[5-(7-fluoro-4-trifluoromethylbenzofuran-2-yl)pyrrolyl]}benzoic acid] | inhibited significantly | 90.7 | effect on anti-DNP IgG2a [1]: significantly inhibited; onset of albuminuria (in words) [3, 5]: complete inhibition; Number of animals with Concentration of Urine Protein (mg/ml) <0.3 ([3]; dose 0.03 mg/kg): 8; Number of animals with Concentration of Urine Protein (mg/ml) >0.3 ([3]; dose 0.03 mg/kg): 0; Number of animals with Concentration of Urine Protein (mg/ml) >1 ([3]; dose 0.03 mg/kg): 0; Number of animals with Concentration of Urine Protein (mg/ml) >3 ([3]; dose 0.03 mg/kg): 0; Number of animals with Concentration of Urine Protein (mg/ml) >10 ([3]; dose 0.03 mg/kg): 0; inhibition of production of anti-ss DNA antibody (in words) (anti-ss DNA antibody; 0.03 mg/kg oral, after 16 weeks of administration): significant inhibition |
| – | – | – | Cc1ccc(C)c2c(F)c(-c3ccc(-c4ccc(C(=O)O)cc4)[nH]3)oc12 [Compound C, 4-{2-[5-(3-fluoro-4,7-dimethylbenzofuran-2-yl)pyrrolyl]}benzoic acid] | inhibited significantly | 87.7 | – |
| – | – | – | CCc1ccc(C)c2cc(-c3ccc(-c4ccc(C(=O)O)cc4)[nH]3)oc12 [Compound D, 4-{2-[5-(7-ethyl-4-methylbenzofuran-2-yl)pyrrolyl]}benzoic acid] | inhibited significantly | 80.3 | onset of albuminuria (in words) [3, 5]: complete inhibition; Number of animals with Concentration of Urine Protein (mg/ml) <0.3 ([3]; dose 0.03 mg/kg): 8; Number of animals with Concentration of Urine Protein (mg/ml) >0.3 ([3]; dose 0.03 mg/kg): 0; Number of animals with Concentration of Urine Protein (mg/ml) >1 ([3]; dose 0.03 mg/kg): 0; Number of animals with Concentration of Urine Protein (mg/ml) >3 ([3]; dose 0.03 mg/kg): 0; Number of animals with Concentration of Urine Protein (mg/ml) >10 ([3]; dose 0.03 mg/kg): 0 |
| 1.4 | 0.21 | 1.9 | CC1(C)CCC(C)(C)c2nc(-c3ccc(-c4ccc(C(=O)O)cc4)[nH]3)cnc21 [drawing 26] | – | – | – |
| 11 | 0.2 | 170 | CC1(C)CCCc2ncc(-c3ccc(-c4ccc(C(=O)O)cc4)[nH]3)nc21 [drawing 27] | – | – | – |
| 7.4 | 1.4 | 20 | CC1CCCN(C)c2ncc(-c3ccc(-c4ccc(C(=O)O)cc4)[nH]3)nc21 (stereo not shown) [drawing 28] | – | – | – |
| 14 | 0.85 | 89 | CCn1nc(-c2ccc(-c3ccc(C(=O)O)cc3)[nH]2)cc1C(C)C [drawing 29] | – | – | – |
| – | – | – | cyclosporin A [reference compound] | – | – | Number of animals with Concentration of Urine Protein (mg/ml) <0.3 ([3]; dose 50 mg/kg): 5; Number of animals with Concentration of Urine Protein (mg/ml) >0.3 ([3]; dose 50 mg/kg): 1; Number of animals with Concentration of Urine Protein (mg/ml) >1 ([3]; dose 50 mg/kg): 2; Number of animals with Concentration of Urine Protein (mg/ml) >3 ([3]; dose 50 mg/kg): 0; Number of animals with Concentration of Urine Protein (mg/ml) >10 ([3]; dose 50 mg/kg): 0; onset of albuminuria (in words) ([3]; dose 50 mg/kg, not statistically significant): showed inhibition; inhibition of production of anti-ds DNA antibody (in words) (anti-ds DNA antibody): did not inhibit; inhibition of production of anti-ss DNA antibody (anti-ss DNA antibody; 50 mg/kg, examined in the same manner, significant): about 85% |

| Molecule | Transcription promoting activity ED30* RAR-β (human RARβ) | Transcription promoting activity ED30* RAR-α (human RARα) | Transcription promoting activity ED30* RAR-γ (human RARγ) | effect on anti-rabbit γ-globulin IgG2a antibody titer [2] | Degree of Inhibition of Albuminuria (%) [4] [%] | also measured |
| --- | --- | --- | --- | --- | --- | --- |
| COCc1cc2c(cc1-c1ccc(-c3ccc(C(=O)O)cc3)[nH]1)C(C)(C)CCC2(C)C [drawing 30] | 29 | 1.9 | 62 | – | – | – |
| C[Si](C)(C)c1cc(C(=O)Nc2ccc(C(=O)O)cc2)cc([Si](C)(C)C)c1 [drawing 31] | 420 | 6 | 7800 | – | – | – |
